Test results taken from article PMC8469489, “Effect of Lactic Acid Bacteria on the Pharmacokinetics and Metabolism of Ginsenosides in Mice” (Pharmaceutics, 2021).
Where two headings read alike, the source gives them in different places. Each block holds one compound with its values, some of them ahead of it.

Tests used:
[1] = Recovery of ginsenosides from urine and feces for 48 h after RGE, amoxicillin with or without LAB; settings: feces 48 h after single oral RGE 2 g/kg; Amoxicillin + LAB vs amoxicillin
Experimental: (§2) Mice received amoxicillin (n = 12, 20 mg/kg, dissolved in water at 2 mL/kg, twice daily) for 3 days via oral gavage. From the 4th day, mice from the LAB + amoxicillin treatment group received LAB (2 g/kg suspended in water at 2 mL/kg, once daily) for 7 days via oral gavage. Mice from the amoxicillin treatment group received water (2 mL/kg, once daily) for 7 days via oral gavage.

[2] = Pharmacokinetics of ginsenosides after single oral RGE after amoxicillin with or without repeated LAB treatment; settings: single oral RGE 2 g/kg
Experimental: as §2
Blood sampling was performed using a sparse sampling method via the right or left retro-orbital vein under isoflurane anesthesia at 0, 2, 4, and 8 h after the RGE administration through the heparinized capillary tube. […] After centrifugation of the blood samples at 10,000× g for 1 min, 30 μL aliquots of plasma were stored at −80 °C until the analysis of the ginsenosides. Subsequent protocols were identical to the amoxicillin treated group.
Pharmacokinetic parameters were calculated using WinNonlin (version 5.1, Pharsight, Mountain View, CA, USA) by a non-compartmental analysis.

[3] = set-up: method as in PMID 26470874; settings: 10–60 mg, intramuscular injection; cited from earlier work
[4] = test system: lactic acid bacteria (LAB); test: Incubation of single ginsenoside with LAB (formation rate of metabolite ginsenoside); type: in vitro ADME; settings: 7 days, 37 °C, MRS broth
Experimental: To compare the involvement of LAB on individual ginsenoside, an aliquot (10 μL) of each ginsenoside stock solution (10 mM in methanol) was mixed with autoclaved MRS broth (550 mg/10 mL in distilled water) and added 2 g of LAB (contained 1 billion CFU). Then, the mixture was incubated for 7 days in a shaking incubator at 37 °C and 300 rpm. For the analysis of ginsenosides, 0.2 mL aliquot of incubation mixture was collected every 24 h for 7 days. The incubation medium was diluted 100-fold with distilled water and stored at −80 °C. For the ginsenoside analysis, 200 μL of an IS solution (0.05 ng/mL berberine in methanol) was added to 30 μL of 100-fold diluted samples.

[5] = test system: lactic acid bacteria (LAB); test: In vitro RGE fermentation with LAB
[6] = Recovery of ginsenosides from urine and feces for 48 h after RGE, amoxicillin vs control; settings: feces 48 h after single oral RGE 2 g/kg; vs control
Experimental: Aliquots (200 μL) of an IS (0.05 ng/mL berberine in methanol) were added to 30 μL of plasma or urine samples. Aliquots (600 μL) of an IS methanol solution containing 0.05 ng/mL berberine were added to 100 μL of 10% feces homogenate samples. […] After centrifugation, 200 μL of the supernatant was transferred to a clean tube and dried under a nitrogen stream at 40 °C. The residue was reconstituted using 100 μL of 70% methanol supplemented with 0.1% formic acid, and a 10-μL aliquot was injected into the LC–MS/MS system.

[7] = test system: lactic acid bacteria (LAB)
[8] = Pharmacokinetics of ginsenosides after single oral RGE with or without amoxicillin treatment; type: in vivo, mice; settings: mouse, in vivo, po, 2 g/kg
Experimental: Male ICR mice (7-weeks-year-old, 30–35 g) were purchased from Samtako Co. (Osan, Kyunggi-do, Korea). Animals were acclimatized for 1 week in an animal facility at Kyungpook National University. Food and water were available ad libitum.
(§1) Before blood sampling, mice were anesthetized using isoflurane (isoflurane vaporizer to 2% with oxygen flow at 0.8 L/min) for 5 min.

Caco-2 cell monolayers = settings: Caco-2, pH 7.4
Experimental: (§3) The culture medium was replaced every other day. On the day of the experiment, the growth medium was discarded, and the attached cells were washed with prewarmed HBSS (pH 7.4) and preincubated with HBSS for 20 min at 37 °C, and the permeability assay was conducted as previously described [53]. Briefly, to measure the apical to basal permeability of each ginsenoside, 0.5 mL of HBSS containing 50 µM of individual ginsenoside (GRb1, GRb2, GRc, GRd, GRe, GRf, GRg1, GRg3, GRh1, GRh2, GF1, GF2, CK, PPD, or PPT) was added to the apical side (inside of the insert) and 1.5 mL of fresh HBSS was added to the basal side of the insert. […] Aliquots (0.1 mL) in basal side were transferred to clean tubes and stored at −80 °C until further analysis. Transport study was performed for 1 h based on the linearity of the cumulative transport amounts of ginsenosides against the transport time. The integrity of cell monolayers was evaluated before and after the permeability experiments by measuring the transepithelial electrical resistance (TEER) values using an epithelial volt/ohm meter (World Precision Instruments; Sarasota, FL, USA). […]
(§4) For the permeability calculation, the transport rate of ginsenosides and marker conpounds was calculated from the slope of the regression line from the mean permeated amounts vs. incubation time plot.

[9] = Plasma protein binding by rapid equilibrium dialysis; type: in vitro ADME; settings: 4 h at 37 °C
Experimental: Briefly, 100 μL of mouse plasma containing 1 μM of each ginsenoside was added to the semipermeable membrane’s inner sample chamber (molecular weight cut-off 8000 Da), and 300 μL of PBS was added to the outer buffer chamber. The samples were then incubated for 4 h at 37 °C on a shaking incubator at 300 rpm, followed by collecting 30-μL aliquots from both the sample and buffer chambers.
Subsequent protocols were identical to the method described above except for the use of ice-cold IS solution (200 μL; 0.05 ng/mL berberine in acetonitrile) to 30 μL of the reaction samples.
Plasma protein binding was calculated using the following equation [31, 60]: Plasma protein binding=(1−Drug concentration in buffer chamber/Drug concentration in plasma sample chamber)×100(%).

[10] = Plasma amoxicillin concentrations after repeated oral administration of amoxicillin; type: in vivo, mice; settings: at 24, 48, and 72 h after the beginning of amoxicillin treatment (20 mg/kg/day oral, twice daily, 3 days)
Experimental: as §1
The standard calibration curve for amoxicillin was linear in the concentration range of 2–5000 ng/mL for the plasma samples, and the interday and intraday precision and accuracy were <15%.

LAB = test system: LAB; set-up: method as in PMID 15902467; settings: cited from earlier work
[11] = cited from earlier work
[12] = Caco-2 permeability (apical to basal); settings: human, Caco-2, pH 7.4
Experimental: as §3, §4

Caco-2 cells = settings: cited from earlier work

SMILES: CC(C)=CCC[C@](C)(O)[C@H]1CC[C@]2(C)[C@@H]1[C@H](O)C[C@@H]1[C@@]3(C)CC[C@H](O)C(C)(C)[C@@H]3[C@@H](O)C[C@]12C [PPT, 20(S)-protopanaxatriol]
Fecal recovery, change by LAB treatment [1]: significantly increased
Half-Life [8]: 20.4 ± 2.3 h
MRT [8]: 20.2 ± 2.2 h
Alteration of ginsenoside by fermentation of RGE with LAB ([5]; 7 days incubation): significantly increased
Fecal recovery, change by the amoxicillin treatment [6]: significantly decreased
Papp,AB (Caco-2 cell monolayers): 3.72 ± 0.56 × 10^−6 cm/s
Plasma protein binding ([9]; 1 μM, mouse plasma): over 99%

SMILES: CC1(C)S[C@@H]2[C@H](NC(=O)[C@H](N)c3ccc(O)cc3)C(=O)N2[C@H]1C(=O)O [amoxicillin]
Plasma amoxicillin concentration [10]: 0.9 to 1.8 µg/mL
Concentration of amoxicillin that must be maintained to inhibit the growth of LAB (LAB): ≤ 2 µg/mL

SMILES: CC(C)NCC(O)COc1cccc2ccccc12 (centres unmarked) [propranolol]
Plasma protein binding reference values [11]: 87–96%
Papp A→B at 1 h [12]: 21.6 ± 2.35 ×10⁻⁶ cm/s
Papp,AB reference values (Caco-2 cells): 18.8–33.1 × 10^−6 cm/s
fraction unbound at 4 h, 1 μM ([9]; pooled mouse plasma): 0.103

Second part, led by results:

Fecal recovery, change by LAB treatment [1]: significantly decreased
AUC ([2]; Amoxicillin + LAB (LAB 2 g/kg once daily 7 days), AUC 0 to 48 h): 25.3 ± 10.6 ng·h/mL
Cmax ([2]; Amoxicillin + LAB): 4.8 ± 1.9 ng/mL
Half-Life ([2]; Amoxicillin + LAB): 5.3 ± 1.1 h
MRT ([2]; Amoxicillin + LAB): 3.5 ± 0.9 h
Tmax ([2]; Amoxicillin + LAB): 2.5 ± 1.0 h
Detection in mouse plasma following repeated LAB administration in addition to amoxicillin [2]: detected
Detection in plasma, control mice and amoxicillin group [2]: not detected
Plasma exposure / pharmacokinetic parameters, LAB treatment compared with amoxicillin group [2]: increased
Metabolite formation on incubation of single ginsenoside with LAB [4]: GRh2 and PPD were produced
Increase of ginsenoside by fermentation of RGE with LAB ([5]; 7 days, relative to the first day): about 30%
Fecal recovery, change by the amoxicillin treatment [6]: increased
SMILES: CC(C)=CCC[C@](C)(O)[C@H]1CC[C@]2(C)[C@@H]1[C@H](O)C[C@@H]1[C@@]3(C)CC[C@H](O[C@@H]4O[C@H](CO)[C@@H](O)[C@H](O)[C@H]4O[C@@H]4O[C@H](CO)[C@@H](O)[C@H](O)[C@H]4O)C(C)(C)[C@@H]3CC[C@]12C [GRg3]
Increase of plasma exposure over the 6-fold dose range [3]: 7.3 fold

Alteration of ginsenoside by fermentation of RGE with LAB [7]: significantly increased
Half-Life [8]: 7.9 ± 1.8 h
MRT [8]: 12.6 ± 4.7 h
SMILES: CC(C)=CCC[C@](C)(O)[C@H]1CC[C@]2(C)[C@@H]1[C@H](O)C[C@@H]1[C@@]3(C)CC[C@H](O)C(C)(C)[C@@H]3CC[C@]12C [PPD, 20(S)-proptopanaxadiol]
